{
  "source": "patent US9622482B2",
  "about": "“Methods for increasing oil palm yield” (Valent BioSciences Corporation, priority 2014, dated 2017)",
  "key": {"[1]": {"test_system": "oil palm fruit", "conditions": "preharvest application to attached bunches; cited from earlier work"}, "[2]": {"test_system": "oil palm", "assay": "Pre-harvest bunch-directed spray on oil palm, fruit abscission (cumulative loose fruit and loose mass)", "format": "in vivo, oil palm (cross between Compact and Ghana)", "conditions": "for % Difference with UTC (Cumulative Loose Fruit) / % Difference with UTC (Cumulative Loose Mass) / Cumulative Loose Mass / Cumulative Loose Fruit: single spray 100 mL/bunch; for % Difference with UTC (Cumulative Loose Fruit) / % Difference with UTC (Cumulative Loose Mass) / Cumulative Loose Mass: 14 days; for Cumulative Loose Fruit: counted for 14 days", "method": "A study was conducted in a plantation in Costa Rica to compare the effects of single bunch-directed applications of: (1) untreated control (water sprayed); (2) AVG at 500 ppm active ingredient (a.i.); (3) 240 ppm a.i. of STS; (4) 720 ppm a.i. of STS; (5) 2,200 ppm a.i. of STS; and (6) 6,600 ppm a.i. of STS. In this study, AVG was provided in a formulation as AVG-HCl at a concentration of 20%. STS was prepared using a 100 mM sodium thiosulfate treatment. For each treatment, 23 palms were randomly selected covering about 15 hectares. The variety of plants used was a cross between Compact and Ghana. The plants were three years old at the time of treatment. A CO2 sprayer was used to spray all treatments (100 mL/bunch) to bunches with 1 to 4 loose fruits. The time required to spray each bunch was about 8 seconds at 20 psi using a 2.0 full cone nozzle. The treatments were applied once per bunch. Ten and thirteen bunches per treatment were sprayed on Apr. 15 and 22, 2015, respectively. Cumulative loose fruit (CLF) and cumulative loose mass (CLM) counts were determined on a daily basis for 14 days with the exception of day 4 and day 9 (for second spray only) and day 11 (after initial spray only) as measure to objectively quantify fruit abscission. An electronic balance was used to weigh all fruit. All loose fruit on the bunch, branches and on the ground was counted and weighed."}, "[3]": {"test_system": "oil palm fruit", "conditions": "postharvest application, detached bunches; cited from earlier work"}, "[4]": {"conditions": "240 to 6,600 ppm a.i., overall statement"}},
  "data": [
    {"compound": "O=P(O)(O)CCCl", "note": "[ethephon, 2-chloroethyl phosphonic acid]", "values": [
      {"measurement": "increase of oil content", "setting": "[1]", "value": 7, "unit": "%"}
    ]},
    {"compound": "silverthiosulfate [STS]", "values": [
      {"measurement": "% Difference with UTC (Cumulative Loose Fruit)", "setting": "[2]; 240 ppm a.i.", "value": 14.4, "unit": "%"},
      {"measurement": "% Difference with UTC (Cumulative Loose Mass)", "setting": "[2]; 240 ppm a.i.", "value": "−0.4", "unit": "%"},
      {"measurement": "Cumulative Loose Mass", "setting": "[2]; 240 ppm a.i.", "value": 1106, "unit": "g"},
      {"measurement": "Cumulative Loose Fruit", "setting": "[2]; 240 ppm a.i.", "value": 129.0},
      {"measurement": "effect on cumulative loose fruit", "setting": "[2]; [4]", "value": "did not consistently decrease"},
      {"measurement": "effect on cumulative loose mass", "setting": "[2]; [4]", "value": "did not consistently decrease"},
      {"measurement": "% Difference with UTC (Cumulative Loose Fruit)", "setting": "[2]; 720 ppm a.i.", "value": 18.7, "unit": "%"},
      {"measurement": "% Difference with UTC (Cumulative Loose Mass)", "setting": "[2]; 720 ppm a.i.", "value": 11.3, "unit": "%"},
      {"measurement": "Cumulative Loose Mass", "setting": "[2]; 720 ppm a.i.", "value": 977, "unit": "g"},
      {"measurement": "Cumulative Loose Fruit", "setting": "[2]; 720 ppm a.i.", "value": 124.7},
      {"measurement": "% Difference with UTC (Cumulative Loose Fruit)", "setting": "[2]; 2,200 ppm a.i.", "value": "−15.7", "unit": "%"},
      {"measurement": "% Difference with UTC (Cumulative Loose Mass)", "setting": "[2]; 2,200 ppm a.i.", "value": "−26.4", "unit": "%"},
      {"measurement": "Cumulative Loose Mass", "setting": "[2]; 2,200 ppm a.i.", "value": 1392, "unit": "g"},
      {"measurement": "Cumulative Loose Fruit", "setting": "[2]; 2,200 ppm a.i.", "value": 159.1},
      {"measurement": "% Difference with UTC (Cumulative Loose Fruit)", "setting": "[2]; 6,600 ppm a.i.", "value": 25.9, "unit": "%"},
      {"measurement": "% Difference with UTC (Cumulative Loose Mass)", "setting": "[2]; 6,600 ppm a.i.", "value": 7.3, "unit": "%"},
      {"measurement": "Cumulative Loose Mass", "setting": "[2]; 6,600 ppm a.i.", "value": 1020, "unit": "g"},
      {"measurement": "Cumulative Loose Fruit", "setting": "[2]; 6,600 ppm a.i.", "value": 117.5}
    ]},
    {"compound": "NOCC(=O)O", "note": "[AOA, aminooxyacetic acid]", "values": [
      {"measurement": "abscission of oil palm fruit", "setting": "[3]", "value": "delayed or suppressed abscission"}
    ]},
    {"compound": "NCCO/C=C/[C@H](N)C(=O)O", "note": "[AVG, aminoethyoxyvinylglycine, reference compound]", "values": [
      {"measurement": "% Difference with UTC (Cumulative Loose Fruit)", "setting": "[2]; 500 ppm a.i.", "value": 71.4, "unit": "%"},
      {"measurement": "% Difference with UTC (Cumulative Loose Mass)", "setting": "[2]; 500 ppm a.i.", "value": 70.8, "unit": "%"},
      {"measurement": "Cumulative Loose Mass", "setting": "[2]; 500 ppm a.i.", "value": 321, "unit": "g"},
      {"measurement": "Cumulative Loose Fruit", "setting": "[2]; 500 ppm a.i.", "value": 72.0}
    ]}
  ]
}
